Structures can show the parent of a compound that is named as a salt.
Tests used:
SB.msgc-1 [1] = experiment: viability at highest tested concentration (MAXR) relative to DMSO; higher = less cytotoxic; conditions: SB.msgc-1 (sporadic gastric cancer)
Outline: (§1)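 Gastric cancer cells derived from hereditary or sporadic patients were treated for 48 h with compound at 11 threefold dilutions, with the top concentration recorded per compound. Viability was then read by CellTiter-Glo luminescence. Data are viability normalised to DMSO, at the highest concentration or as trapezoidal area under the curve.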

SB.mhdgc-1 [2] = experiment: as above; conditions: SB.mhdgc-1 (hereditary c.1380delA CDH1 gastric cancer)
Outline: as §1

SB.msgc-1 [3] = experiment: area under the dose-response curve of % viability (trapezoidal, 11 doses) (% viability x log10 concentration); higher = less cytotoxic; conditions: SB.msgc-1 (sporadic gastric cancer)
Outline: as §1

SB.mhdgc-1 [4] = experiment: as above; conditions: SB.mhdgc-1 (hereditary c.1380delA CDH1 gastric cancer)
Outline: as §1

Compound	viability (SB.msgc-1 [1])	viability (SB.mhdgc-1 [2])	area under the dose-response curve (SB.msgc-1 [3])	area under the dose-response curve (SB.mhdgc-1 [4])
CC1(C)O[C@H]2CC(=O)OC[C@]23[C@H]2CC[C@@]4(C)[C@H](c5ccoc5)OC(=O)[C@H]5O[C@]54[C@]2(C)C(=O)C[C@@H]13 [Limonin] (top concentration 46.0829 µM)	128%	120%	570	598
CC#CCn1c(N2CCC[C@@H](N)C2)nc2c1c(=O)n(Cc1nc(C)c3ccccc3n1)c(=O)n2C [Linagliptin] (top concentration 46.0829 µM)	77.9%	57.7%	528	564
CCC[C@@H]1C[C@@H](C(=O)N[C@@H]([C@H]2O[C@H](SC)[C@H](O)[C@@H](O)[C@H]2O)[C@@H](C)O)N(C)C1.Cl [Lincomycin  hydrochloride] (top concentration 46.0829 µM)	94%	85.3%	548	525
CC(=O)NC[C@H]1CN(c2ccc(N3CCOCC3)c(F)c2)C(=O)O1 [Linezolid] (top concentration 46.0829 µM)	101%	108%	565	596
Cc1ccc(F)c(NC(=O)Nc2ccc(-c3cccc4[nH]nc(N)c34)cc2)c1 [Linifanib] (top concentration 46.0829 µM)	26.4%	18.9%	498	479
O=C1N(c2ccccc2)c2ccccc2C1(Cc1ccncc1)Cc1ccncc1 [Linopirdine] (top concentration 46.0829 µM)	57.2%	5.06%	540	369
C[C@]1(O)CC(C1)C2=NC(=C3[N]2C=CN=C3N)C4=CC5=C(C=C4)C=CC(=N5)C6=CC=CC=C6 (stereo unspecified) [Linsitinib] (top concentration 46.0829 µM)	35.1%	31.5%	448	475
COc1cccc(N(C)C(=S)Oc2ccc3c(c2)CCCC3)n1 [Liranaftate] (top concentration 46.0829 µM)	73.7%	90.5%	507	517
C[S+](=O)([O-])Oc1ccc2c(NC(N)=O)c(C(=O)c3ccc(Cl)cc3Cl)oc2c1 [Lirimilast] (top concentration 46.0829 µM)	8%	66.1%	424	461
CCN1\C=C(C(O)=O)/C(=O)C2=C1C(=C(N3CCNC(C)C3)C(=C2)F)F (stereo unspecified) [Lomefloxacin hydrochloride] (top concentration 46.0829 µM)	101%	124%	515	517
CC1CCC(C(=O)N(c2cc(C#CC(C)(C)C)sc2C(=O)O)C2CCC(O)CC2)CC1 (stereo unspecified) [Lomibuvir] (top concentration 46.0829 µM)	27.4%	73.3%	481	408
O=NN(CCCl)C(=O)NC1CCCCC1 [Lomustine] (top concentration 46.0829 µM)	70.4%	125%	513	551
NC(=O)N1CCC(CC(=O)N2CCC([C@H]3c4ncc(Br)cc4CCc4cc(Cl)cc(Br)c43)CC2)CC1 [Lonafarnib] (top concentration 46.0829 µM)	-0.76%	0.687%	406	518
O=C(O)c1nn(Cc2ccc(Cl)cc2Cl)c2ccccc12 [Lonidamine] (top concentration 46.0829 µM)	82.3%	87.9%	461	443
CN(C)C(=O)C(CCN1CCC(O)(c2ccc(Cl)cc2)CC1)(c1ccccc1)c1ccccc1 [Loperamide hydrochloride] (top concentration 46.0829 µM)	70.5%	5.88%	525	450
Cc1cccc(C)c1OCC(=O)N[C@@H](Cc1ccccc1)[C@@H](O)C[C@H](Cc1ccccc1)NC(=O)[C@H](C(C)C)N1CCCNC1=O [Lopinavir] (top concentration 46.0829 µM)	53.2%	53.2%	497	453
CN1\C(=C(O)/C2=C(C=C(Cl)S2)[S+]1([O-])=O)C(=O)NC3=NC=CC=C3 [Lornoxicam] (top concentration 46.0829 µM)	33.4%	55.5%	454	490
CCOC(=O)O[C@]1(C(=O)OCCl)CC[C@H]2[C@@H]3CCC4=CC(=O)C=C[C@]4(C)[C@H]3[C@@H](O)C[C@@]21C [Loteprednol etabonate] (top concentration 46.0829 µM)	110%	92.8%	520	493
CC[C@H](C)C(=O)O[C@H]1C[C@@H](C)\C=C2\C=C/[C@H](C)[C@H](CC[C@@H]3C[C@@H](O)CC(=O)O3)[C@@H]12 [Lovastatin] (top concentration 46.0829 µM)	39.6%	38.2%	351	460
CCCCC(F)(F)[C@@]1(O)CC[C@H]2[C@@H](CC(=O)[C@@H]2CCCCCCC(=O)O)O1 [Lubiprostone] (top concentration 46.0829 µM)	40.1%	57.7%	495	513
Cc1ccc(NC(=O)C2(c3ccc4c(c3)OC(F)(F)O4)CC2)nc1-c1cccc(C(=O)O)c1 [Lumacaftor] (top concentration 46.0829 µM)	25.3%	37.7%	211	396
CCCCN(CCCC)CC(O)c1cc(Cl)cc2c1-c1ccc(Cl)cc1/C2=C/c1ccc(Cl)cc1 (stereo unspecified) [Lumefantrine] (top concentration 46.0829 µM)	60.5%	12%	476	560

Compound	viability (SB.msgc-1 [1])	viability (SB.mhdgc-1 [2])	area under the dose-response curve (SB.msgc-1 [3])	area under the dose-response curve (SB.mhdgc-1 [4])
C=C(C)[C@@H]1CC[C@]2(C)CC[C@]3(C)[C@H](CC[C@@H]4[C@@]5(C)CC[C@H](O)C(C)(C)[C@@H]5CC[C@]43C)[C@@H]12 [Lupeol] (top concentration 46.0829 µM)	108%	134%	522	609
O=c1cc(-c2ccc(O)c(O)c2)oc2cc(O)cc(O)c12 [Luteolin] (top concentration 46.0829 µM)	86.9%	42.6%	572	442
CN(C)c1ccc(C(=O)NCCCCCCC(=O)NO)cc1 [M344] (top concentration 46.0829 µM)	2.11%	2.75%	309	363
Cn1cc(/C=C/C(=O)c2cccc(F)c2)cc1/C=C/C(=O)NO [MC-1568] (top concentration 46.0829 µM)	46.7%	65.8%	440	492
CC1(N2CCC(n3c([C@@H]4CCCNC4)nc4ccccc43)CC2)CCCCCCC1 [MCOPPB] (top concentration 46.0829 µM)	78.1%	4.64%	530	451
CNC(=O)c1ccc(N2C(=S)N(c3ccc(C#N)c(C(F)(F)F)c3)C(=O)C2(C)C)cc1F [MDV-3100] (top concentration 46.0829 µM)	74.6%	70.4%	464	507
CCC[C@@H](C=O)NC(=O)[C@H](CC(C)C)NC(=O)[C@H](CC(C)C)NC(=O)OCc1ccccc1 [MG-115] (top concentration 46.0829 µM)	4.73%	4.83%	361	350
CC(C)C[C@@H](C=O)NC(=O)[C@H](CC(C)C)NC(=O)[C@H](CC(C)C)NC(=O)OCc1ccccc1 [MG-132] (top concentration 46.0829 µM)	3.51%	3.2%	292	330
CCCCCCCc1ccc(CCc2cccc(O)c2C(=O)O)cc1 [MG-149] (top concentration 46.0829 µM)	79.6%	90.6%	511	525
Cn1cnc(-c2cc3nccc(Oc4ccc(NC(=S)NC(=O)Cc5ccccc5)cc4F)c3s2)c1 [MGCD-265] (top concentration 46.0829 µM)	40%	56.2%	425	410
COCCOc1nc(-c2ccc(Cl)c(Cl)c2)n(-c2ccc(NC(=O)CCl)cc2)n1 [MI-2] (top concentration 46.0829 µM)	59.3%	35.3%	460	474
C1Cc2[nH]nc(-c3nn[nH]n3)c2C1 [MK-0354] (top concentration 46.0829 µM)	112%	98.4%	499	450
O=C(O)CCC1CCC(c2cc(F)ccc2F)([S+](=O)([O-])c2ccc(Cl)cc2)CC1 (stereo unspecified) [MK-0752] (top concentration 46.0829 µM)	58.6%	78.9%	479	435
COc1ccc(CC2SC(=O)NC2=O)cc1C(=O)NCc1ccc(C(F)(F)F)cc1 (stereo unspecified) [MK-767] (top concentration 46.0829 µM)	19.6%	59.8%	271	462
CC(C)c1ccc2c(c1)c(SC(C)(C)C)c(CC(C)(C)C(=O)[O-])n2Cc1ccc(Cl)cc1 [MK-886] (top concentration 46.0829 µM)	19%	25.9%	331	473
C=CCn1c(=O)c2cnc(Nc3ccc(N4CCN(C)CC4)cc3)nc2n1-c1cccc(C(C)(C)O)n1 [MK-1775] (top concentration 46.0829 µM)	41.1%	36.2%	384	384
CCN1C[C@H](C)[N]2C(=C(O)C3=C2\C(=N/N(CC4=CC=C(F)C(=C4)Cl)C3=O)C(=O)NC)C1=O [MK-2048] (top concentration 46.0829 µM)	106%	118%	574	538
NC1(c2ccc(-c3nc4ccn5c(=O)[nH]nc5c4cc3-c3ccccc3)cc2)CCC1 [MK-2206] (top concentration 46.0829 µM)	41.5%	16.4%	468	370
CN(C[C@@H]1COCCO1)[S+]([O-])(=O)NC2=CC3=C(C=C2)\C=C/C4=C(C=C(C=N4)C5=C[N](C)N=C5)C3=O [MK-2461] (top concentration 46.0829 µM)	76.8%	90.3%	470	564
O=C(CN1C(=O)C2(CCCC2)NC[C@H]1c1cc(F)cc(F)c1)Nc1ccc2c(c1)C[C@@]1(C2)C(=O)Nc2ncccc21 [MK-3207] (top concentration 46.0829 µM)	118%	123%	573	555
O=C(O)C1(Cc2cccc(Nc3nccs3)n2)CCC(Oc2cccc(Cl)c2F)CC1 (stereo unspecified) [MK-5108] (top concentration 46.0829 µM)	107%	110%	485	355
O=C(O)Cn1nnc(-c2cc(N3CCC(Oc4cc(F)ccc4Br)CC3)no2)n1 [MK-8245] (top concentration 46.0829 µM)	64.6%	133%	478	526

Source: the supplement of paper PMC5412046
